These results are taken from patent US9617530B2, “Acetyl-CoA carboxylase herbicide resistant sorghum” (Kansas State University Research Foundation, Inc., priority 2007, dated 2017).

Assay [1] has as its system F1 generation of cross ATx623×Bol-71. Nature of the assay: Mode of inheritance greenhouse spray test, F1 hybrid. The following applies: 0.045 lb ai fluazifop-P acre^-1 at 14 days after planting, n=3. The assay is classed as in vivo, sorghum. The procedure:
(§1) The mode of inheritance of herbicide tolerance was determined by planting seeds of Bol-71, F1 generation of cross ATx623×Bol-71, and Pioneer 84G62 (herbicide susceptible control) in flats containing MetroMix 360 potting soil in a greenhouse using a randomized complete block design (n=3). The plants were sprayed with 0.045 lb ai fluazifop-P acre^−1 at 14 days after planting. Pioneer 84G62 died between 12-16 days after spraying.

The subject of assay [2] is Tx2783, an herbicide susceptible elite sorghum genotype. Put plainly: Greenhouse herbicide selection, spray on susceptible elite check. The assay is classed as in vivo, Sorghum bicolor (L.) Moench. From the text: Seeds of 83 wild sorghum populations from Bolivia were planted in a greenhouse for comparison with Tx2783, an herbicide susceptible elite sorghum genotype. Wild sorghum genotypes were planted in flats containing MetroMix 360 potting soil (Sun Gro) and greenhouse grown. Tx2783 was planted with the wild accessions in each flat for comparison. In one selection using clethodim, plants were sprayed with 0.09 lb ai clethodim acre^−1 at 18 days after planting. […] In one selection using fluoazifop-P, flats with Tx2783 and wild accessions were sprayed with a rate of 0.12 lb ai fluazifop-P acre^−1 at 18 days after planting and with 0.36 lb ai fluazifop-P acre^−1 at 32 days after planting. […] In a third experiment, plants were sprayed with a rate of 0.05 lb ai quizalofop acre^−1 at 18 days after planting and with 0.11 lb ai quizalofop acre^−1 at 32 days after planting.

Assay [3] deals with Bol-71. Put plainly: Mode of inheritance greenhouse spray test, wild parent. The class given is in vivo, sorghum. The following applies: 0.045 lb ai fluazifop-P acre^-1 at 14 days after planting, n=3. The procedure: as §1
For assay [4], the system named is Pioneer 84G62 (herbicide susceptible control). Put plainly: Mode of inheritance greenhouse spray test, susceptible control. The assay is classed as in vivo, sorghum. The following applies: 0.045 lb ai fluazifop-P acre^-1 at 14 days after planting, n=3. The procedure:
as §1

Molecules are shown by their SMILES.

As for `C[C@@H](Oc1ccc(Oc2ccc(C(F)(F)F)cn2)cc1)C(=O)O` [fluazifop-P], the herbicide damage entry in assay [1] and in assay [3] was “no herbicide damage” in each case. Moreover, the “plant outcome after spraying” value in assay [2] (0.12 lb ai fluazifop-P acre^-1 at 18 days and 0.36 lb ai acre^-1 at 32 days after planting) is listed as “died”. In addition, in assay [4], the “time of plant death after spraying” value is on record as 12-16 days after spraying.
On to `CC(Oc1ccc(Oc2cnc3cc(Cl)ccc3n2)cc1)C(=O)O` (centres unmarked) [quizalofop], for which the “plant outcome after spraying” value in assay [2] (0.05 lb ai quizalofop acre^-1 at 18 days and 0.11 lb ai acre^-1 at 32 days after planting) is recorded as “died”.
